According to patent US4737510A, “Bioactive metabolites from the caribbean sponge agelas coniferin” (priority 1986, dated 1988):
Values joined by “and” are separate entries in the source; they are usually repeats but may differ in a detail not shown here. Identical values can stand only once. Like-named read-outs stand apart in the source and are kept apart here.

What was measured:
[1] = test system: Balanus amphitrite amphitrite; experiment: Barnacle settlement assay, facilitation; type: in vivo, Balanus amphitrite amphitrite (barnacle); details: Amphibalanus amphitrite
E. coli strain BR339 = type: cell-based
[2] = test system: Herpes simplex virus, type I (HSV-1); experiment: microbe, parasite or virus in culture; type: cell-based; details: for zone of inhibition at 20 µg/disc / zone of inhibition at 50 µg/disc / zone of inhibition at 100 µg/disc / zone of inhibition at 200 µg/disc: Human alphaherpesvirus 1, in Primates
Escherichia coli = experiment: Disc diffusion antimicrobial assay, Escherichia coli; type: cell-based; details: for zone of inhibition at 10 µg/disc / zone of inhibition at 50 µg/disc / zone of inhibition at 100 µg/disc: Escherichia coli, 6.5 mm disc, read-out: diameter of the clear zone of inhibition; for zone of inhibition at 50 µg/disc: 50 μg/disk
[3] = test system: Monkey Kidney Cells (CV-1); experiment: Cytotoxicity to monkey kidney cells (CV-1) determined by Dr. R. G. Hughes, Jr.; details: 8 or less essentially indicates noncytotoxicity
Bacillus subtilis = experiment: Disc diffusion antimicrobial assay, Bacillus subtilis; type: cell-based; details: for zone of inhibition at 10 µg/disc / zone of inhibition at 50 µg/disc / zone of inhibition at 100 µg/disc: Bacillus subtilis, 6.5 mm disc, read-out: diameter of the clear zone of inhibition; for zone of inhibition at 50 µg/disc: 50 μg/disk; for zone of inhibition at 100 µg/disc: 100 μg/disk
[4] = test system: Herpes Simplex Virus type 1 (HSV-1); experiment: Antiviral activity against HSV-1 determined by Dr. R. G. Hughes, Jr.;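 note: grades: +++ strong ++ moderate + light ± questionable - negative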; type: cell-based
[5] = test system: Balanus amphitrite amphitrite; experiment: Barnacle settlement assay, inhibition; type: in vivo, Balanus amphitrite amphitrite (barnacle); details: Amphibalanus amphitrite
[6] = test system: vesicular stomatitis virus (VSV); experiment: microbe, parasite or virus in culture; type: cell-based; details: for zone of inhibition at 20 µg/disc / zone of inhibition at 50 µg/disc / zone of inhibition at 100 µg/disc / zone of inhibition at 200 µg/disc: Vesicular stomatitis virus, in Primates
[7] = test system: monkey kidney (CV-1) cells; experiment: Cytotoxicity to monkey kidney (CV-1) cells
[8] = test system: vesicular stomatitus virus (VSV); type: cell-based; details: 100 μg/disk
[9] = Stability of isolated solids; type: physicochemical; details: diacetate salts, amorphous solids
[10] = Water solubility (in words); type: physicochemical; details: relative to 1a-6a
serotonergic receptor = details: cited from earlier work
KB carcinoma = details: cited from earlier work
[11] = read-out: antiviral activity, HSV-1, ++ scale
[12] = read-out: antiviral activity, HSV-1, zone diameter
[13] = read-out: antiviral activity, VSV, ++ scale
[14] = read-out: antiviral activity, VSV, zone diameter

Compound	BIA activity, numerical color intensity scale 0-10 (E. coli strain BR339)	zone of inhibition at 20 µg/disc [2, 11] [mm]	zone of inhibition at 50 µg/disc [2, 11] [mm]	zone of inhibition at 100 µg/disc [2, 11] [mm]	zone of inhibition at 200 µg/disc [2, 11] [mm]	zone of inhibition at 20 µg/disc [2, 12] [mm]	zone of inhibition at 100 µg/disc [2, 12] [mm]	zone of inhibition at 10 µg/disc (Escherichia coli; 10 μg/disk) [mm]	zone of inhibition at 50 µg/disc (Escherichia coli) [mm]	zone of inhibition at 100 µg/disc (Escherichia coli; 100 μg/disk) [mm]	cytotoxicity, zone diameter ([3]; 25 μg/disk) [mm]	cytotoxicity, zone diameter ([3]; 50 μg/disk) [mm]	cytotoxicity, zone diameter ([3]; 100 μg/disk) [mm]	zone of inhibition at 10 µg/disc (Bacillus subtilis; 10 μg/disk) [mm]	zone of inhibition at 50 µg/disc (Bacillus subtilis) [mm]	zone of inhibition at 100 µg/disc (Bacillus subtilis) [mm]	HSV-1 activity ([4]; 25 μg/disk)	HSV-1 activity ([4]; 50 μg/disk)	HSV-1 activity ([4]; 100 μg/disk)	zone of inhibition at 200 µg/disc [6, 13] [mm]	further results
Nc1ncc([C@@H]2[C@@H](CNC(=O)c3cc(Br)c[nH]3)[C@H](CNC(=O)c3cc(Br)c[nH]3)[C@H]2c2cnc(N)[nH]2)[nH]1 (relative stereo) [Compound 2a, Sceptrin Acetate]	9 and 6	11 to 15	11 to 15	11 to 15	> 16	11	13	7	10	11	5	5	7	9	16	17	-	+++	++	11 to 15	EC50 [1]: 0.029 µg/mL; BIA activity (E. coli strain BR339): inducers; zone of inhibition at 50 µg/disc [2, 12]: 13 mm; zone of inhibition at 200 µg/disc [2, 12]: 21 mm; activity against Escherichia coli (Escherichia coli; 10 μg/disk): active; growth inhibition of Bacillus subtilis (Bacillus subtilis; 10 μg/disk): most active; EC50 [5]: 44 µg/mL; zone of inhibition at 20 µg/disc [6, 13]: 7 mm; zone of inhibition at 50 µg/disc [6, 13]: 8 to 10 mm; zone of inhibition at 100 µg/disc [6, 13]: 11 to 15 mm; zone of inhibition at 20 µg/disc [6, 14]: 7 mm; zone of inhibition at 50 µg/disc [6, 14]: 8 mm; zone of inhibition at 100 µg/disc [6, 14]: 11 mm; zone of inhibition at 200 µg/disc [6, 14]: 13 mm
Nc1ncc(C2c3nc(N)[nH]c3CC(CNC(=O)c3cc(Br)c[nH]3)C2CNC(=O)c2cc(Br)c[nH]2)[nH]1 (centres unmarked) [Compound 4a, Ageliferin Acetate]		8 to 10	11 to 15	11 to 15	> 16	10	14	7	9	9	5	5	8	10	15	16	-	+	++	11 to 15	zone of inhibition at 50 µg/disc [2, 12]: 13 mm; zone of inhibition at 200 µg/disc [2, 12]: 17 mm; activity against Escherichia coli (Escherichia coli; 10 μg/disk): active; EC50 [5]: 21 µg/mL; zone of inhibition at 20 µg/disc [6, 13]: < 7 mm; zone of inhibition at 50 µg/disc [6, 13]: 8 to 10 mm; zone of inhibition at 100 µg/disc [6, 13]: 8 to 10 mm; zone of inhibition at 20 µg/disc [6, 14]: 0 mm; zone of inhibition at 50 µg/disc [6, 14]: 8 mm; zone of inhibition at 100 µg/disc [6, 14]: 10 mm; zone of inhibition at 200 µg/disc [6, 14]: 12 mm
Nc1ncc(C2c3nc(N)[nH]c3CC(CNC(=O)c3cc(Br)c(Br)[nH]3)C2CNC(=O)c2cc(Br)c(Br)[nH]2)[nH]1 (centres unmarked) [Compound 6a, Dibromoageliferin Acetate]	2	8 to 10	11 to 15	11 to 15	11 to 15	9	11	0	7	7	6	8	10	8	9	9	-	±	±	8 to 10	zone of inhibition at 50 µg/disc [2, 12]: 11 mm; zone of inhibition at 200 µg/disc [2, 12]: 12 mm; traces of cytotoxicity, zone ([7]; all concentrations (200, 100, 50, 20 μg/disk)): ≤ 8 mm; zone of inhibition at 20 µg/disc [6, 13]: < 7 mm; zone of inhibition at 50 µg/disc [6, 13]: 8 to 10 mm; zone of inhibition at 100 µg/disc [6, 13]: 8 to 10 mm; zone of inhibition at 20 µg/disc [6, 14]: 0 mm; zone of inhibition at 50 µg/disc [6, 14]: 8 mm; zone of inhibition at 100 µg/disc [6, 14]: 9 mm; zone of inhibition at 200 µg/disc [6, 14]: 10 mm
NC1=NC(=O)C(C2C(CNC(=O)c3ccc[nH]3)C(CNC(=O)c3cc(Br)c[nH]3)C2c2cnc(N)[nH]2)N1 (centres unmarked) [Compound 7a, Debromooxysceptrin Acetate]	4	< 7	< 7	< 7	8 to 10	0	0	0	0	0	5	5	6	0	7	8	-	-	-	< 7	VSV activity [8]: ±; BIA activity (E. coli strain BR339): somewhat less active; BIA zone appearance (E. coli strain BR339): more diffuse zone; activity against HSV-1 [2]: essentially inactive; antiviral zone appearance [2]: diffuse zones; zone of inhibition at 50 µg/disc [2, 12]: 0 mm; activity against Escherichia coli (Escherichia coli; 100 μg/disk): inactive; stability [9]: stable; traces of cytotoxicity, zone ([7]; 200 μg/disk): ≤ 8 mm; water solubility [10]: more water soluble; activity against VSV ([6]; 200 μg/disk): essentially inactive; zone of inhibition at 200 µg/disc [6, 14]: 0 mm
NC1=NC(=O)C(C2C(CNC(=O)c3cc(Br)c[nH]3)C(CNC(=O)c3cc(Br)c[nH]3)C2c2cnc(N)[nH]2)N1 (centres unmarked) [Compound 8a, Oxysceptrin Acetate]	9 and 6	< 7	8 to 10	11 to 15	11 to 15	0	11	0	8	10	5	5	6	0	14	15	-	-	+	8 to 10	EC50 [1]: 0.017 µg/mL; BIA activity (E. coli strain BR339): inducers; BIA zone appearance (E. coli strain BR339): more diffuse zone; antiviral zone appearance [2]: diffuse zones; zone of inhibition at 200 µg/disc [2, 12]: 12 mm; stability [9]: stable; water solubility [10]: more water soluble; zone of inhibition at 20 µg/disc [6, 13]: < 7 mm; zone of inhibition at 50 µg/disc [6, 13]: < 7 mm; zone of inhibition at 100 µg/disc [6, 13]: 8 to 10 mm; zone of inhibition at 20 µg/disc [6, 14]: 0 mm; zone of inhibition at 50 µg/disc [6, 14]: 0 mm; zone of inhibition at 100 µg/disc [6, 14]: 8 mm
Cn1c(/C=C\CNC(=O)c2cc(Br)c[nH]2)cnc1N [Keramidine]																					serotonergic receptor activity (serotonergic receptor): serotonergic receptor antagonist
N=C(N)NC(=O)c1cc(Br)c[nH]1 [N-amidino-4-bromopyrrole-2-carboxamide]																					effect on KB carcinoma (KB carcinoma): KB carcinoma-altering
